Patent US11858956B2, “6-aza-nucleoside prodrugs as antiviral agents for treating virus infections” (Southern Research Institute, priority 2020, dated 2024)

Columns and labels:
Type in all cases: cell-based
[1] = Cytotoxicity (CC50) in HEK293 cells; conditions: human, WNV
Protocol: (§1) As used herein, “CC50” is intended to refer to the concentration of a substance (e.g., a compound or a drug) that is required for 50% reduction of cell viability. In one aspect, an CC50 can refer to the concentration of a substance that is required for 50% reduction (i.e., cytotoxicity) in vivo, as further defined elsewhere herein.
The antiviral activity against Alpharviruses evaluated in HEK293 cells (4 hours pre-incubation with compound before infected with virus) is shown in Table 2 below. VTR=Virus titer reduction in log at 10 μM concentration. NT: not tested, ND: not determined

DENV = assay: Antiviral activity against DENV in HEK293 cells; conditions: Dengue virus; for EC90: HEK293, read-out: DENV (HEK293 cells) EC90; for log reduction at 10 µM: HEK293, read-out: DENV (HEK293 cells) VTR (virus titer reduction)
ZIKA = assay: Antiviral activity against ZIKA in HEK 293 cells; conditions: Zika virus; for EC90: HEK293, read-out: ZIKA (HEK 293 cells) EC90; for log reduction at 10 µM: HEK293, read-out: ZIKA (HEK 293 cells) VTR (virus titer reduction)
CHIKV = assay: Antiviral activity against CHIKV in NHDF cells; conditions: Chikungunya virus; for EC90: read-out: CHIKV (NHDF cells) EC90; for log reduction at 10 µM: read-out: CHIKV (NHDF cells) VTR (virus titer reduction)
H1N1 strain = assay: Antiviral activity against Influenza H1N1 strain in MDCK cells; conditions: Influenza A virus; for log reduction at 20 µM: at 20 μM concentration, 4-6 hours pre-incubation, read-out: H1N1 strain (MDCK cells) VTR (virus titer reduction); for EC90: 4-6 hours pre-incubation with compound
Protocol: (§2) The antiviral activity against Influenza viruses (H1N1 and H3N2 strains) evaluated in MDCK cells (4-6 hours pre-incubation with compound) shown in Table 5 below. VTR=Virus titer reduction in log at 20 μM concentration. NT: not tested, ND: not determined.

H3N2 strain = assay: Antiviral activity against Influenza H3N2 strain in MDCK cells; conditions: Influenza A virus; for log reduction at 20 µM: at 20 μM concentration, 4-6 hours pre-incubation, read-out: H3N2 strain (MDCK cells) VTR (virus titer reduction); for EC90: 4-6 hours pre-incubation with compound
Protocol: as §2

[2] = Cytotoxicity (CC50) in MDCK cells; conditions: dog, H1N1
Protocol: as §1, §2

VEEV = assay: microbe, parasite or virus in culture; conditions: Venezuelan equine encephalitis virus, NHDF

Structure (SMILES)	CC50 [1]	EC90 (DENV)	log reduction at 10 µM (DENV)	EC90 (ZIKA)	log reduction at 10 µM (ZIKA)	EC90 (CHIKV)	log reduction at 10 µM (CHIKV)	log reduction at 20 µM (H1N1 strain)	log reduction at 20 µM (H3N2 strain)	EC90 (H1N1 strain)	CC50 [2]	EC90 (H3N2 strain)	EC90 (VEEV; read-out: VEEV (NHDF cells) EC90)	log reduction at 10 µM (VEEV; read-out: VEEV (NHDF cells) VTR (virus titer reduction))
CCCCCOC(=O)Nc1cnn([C@@H]2O[C@H](CO)[C@@H](O)[C@H]2O)c(=O)n1 [Compound 24, pentyl (2-((2R,3R,4S,5R)-3,4-dihydroxy-5-(hydroxy-methyl)tetrahydrofuran-2-yl)-3-oxo-2,3-dihydro-1,2,4-triazin-5-yl)carbamate]	20.4 µM	1.2 µM	3.3	0.3 µM	3.1	> 10 µM	0	2.9	1.6					
CCCC(=O)Nc1cnn([C@@H]2O[C@H](CO)[C@@H](O)[C@H]2O)c(=O)n1 [Compound 20, N-(2-((2R,3R,4S,5R)-3,4-dihydroxy-5-(hydroxymethyl)tetrahydro-furan-2-yl)-3-oxo-2,3-dihydro-1,2,4-triazin-5-yl)butyramide]	22.9 µM	1.2 µM	3	0.2 µM	2.8	9 µM	1.5	2.9	2.7	2.8 µM	> 20 µM	3.5 µM		
CCOC(=O)Nc1cnn([C@@H]2O[C@H](CO)[C@@H](O)[C@H]2O)c(=O)n1 [Compound 23, ethyl (2-((2R,3R,4S,5R)-3,4-dihydroxy-5-(hydroxy-methyl)tetrahydrofuran-2-yl)-3-oxo-2,3-dihydro-1,2,4-triazin-5-yl)carbamate]	22.4 µM	1.3 µM	3.3	0.3 µM	3	> 10 µM	0	3.6	2	3.78 µM	> 20 µM	6.3 µM		
CC(C)C(=O)OC[C@H]1O[C@@H](n2ncc(=O)[nH]c2=O)[C@H](O)[C@@H]1O [Compound 14, ((2r,3s,4r,5r)-5-(3,5-dioxo-4,5-dihydro-1,2,4-triazin-2(3H)-yl)-3,4-dihydroxytetrahydrofuran-2-yl)-methyl isobutyrate]	> 40 µM	5 µM	2.1					3.3	3.3	3.6 µM	> 20 µM	16.4 µM		
O=C(Nc1cnn([C@@H]2O[C@H](CO)[C@@H](O)[C@H]2O)c(=O)n1)C1CCC1 [Compound 22, N-(2-((2R,3R,4S,5R)-3,4-dihydroxy-5-(hydroxymethyl)-tetrahydrofuran-2-yl)-3-oxo-2,3-dihydro-1,2,4-triazin-5-yl)-cyclobutanecarboxamide]	6.46 µM	1 µM	3.2	0.4 µM	2.6	8 µM	0.89	2.9	3	0.68 µM	19 µM	3.9 µM		
CCC(CC)COC(=O)[C@H](C)NP(=O)(OC[C@H]1O[C@@H](n2ncc(N)nc2=O)C(O)C1O)Oc1ccccc1 (single isomer, unassigned) [Compound 17, 2-ethylbutyl ((((2r,9,4r,5r)-5-(5-amino-3-oxo-1,2,4-triazin-2(3H)-yl)-3,4-dihydroxytetrahydrofuran-2-yl)methoxy)-(phenoxy)phosphoryl)-L-alaninate]		> 30 µM											5 µM	1
